Results reported in patent US10561666B2, “Amido compounds as RORγt modulators and uses thereof” (New York University, priority 2010, dated 2020).
pIC50: −log10 of the molar value.

Experiments:
mouse Th17 polarization = test: Mouse Th17 polarization assay (IL-17a producing cells); format: cell-based; conditions: naive mouse CD4 T cells, TGFβ and IL6; compounds added Day 1, analyzed Day 4; IL-17a producing cells; read-out: Th 17 IC50
Experimental: Effects of compound derivatives at various concentrations on mouse Th17 polarization. Percentage of DMSO treated IL-17a producing cells was set at 100. Naive mouse CD4 T cells (CD25^−, CD62L^+, and CD44^int-high) were sorted and cultured with CD3/CD28 stimulatory antibodies in the presence of TGFβ (0.1 ng/ml) and IL6 (20 ng/ml). Compounds were added on Day 1 and cells were analyzed on Day 4. For intracellular cytokine staining, cells were incubated for 5 h with phorbol ester (50 ng/ml; Sigma), ionomycin (500 ng/ml; Sigma) and GolgiStop (BD). When needed, surfaces were stained by incubation for 15 min on ice with PECy7-conjugated CD4 (BD Biosciences). The Cytofix/Cytoperm buffer set (BD) was used for intracellular staining. Cells were fixed and made permeable for 30 min on ice and were stained for 30 min on ice in permeabilization buffer with Alexa647-conjugated anti-IL17 (eBioscience) and PE-conjugated anti-IFNg (eBioscience). An LSR II (BD Biosciences) and FlowJo software (Tree Star) were used for flow cytometry. RORg IC50 value acquired from the S2 cell reporter assay is listed for comparison.
Naive CD4 T cells (CD25^−, CD62L^+, and CD44^int-high) were sorted and cultured with CD3/CD28 stimulatory antibodies in the presence of TGFβ (0.1 ng/ml) and IL6 (20 ng/ml). Compounds were added on Day 1 and cells were analyzed on Day 4. For intracellular cytokine staining, cells were incubated for 5 h with phorbol ester (50 ng/ml; Sigma), ionomycin (500 ng/ml; Sigma) and GolgiStop (BD). When needed, surfaces were stained by incubation for 15 min on ice with PECy7-conjugated CD4 (BD Biosciences). The Cytofix/Cytoperm buffer set (BD) or FoxP3 staining kit (eBioscience) were used for intracellular staining. Cells were fixed and made permeable for 30 min on ice and were stained for 30 min on ice in permeabilization buffer with Alexa647-conjugated anti-IL17 (eBioscience), PE-conjugated anti-IFNg (eBioscience), and/or PE-conjugated anti-FoxP3 (eBioscience). An LSR II (BD Biosciences) and FlowJo software (Tree Star) were used for flow cytometry.

RORγt = RORγt (Mus musculus, UniProt P51450, T352K); test: RORγt S2 cell Gal4-luciferase reporter assay; conditions: for Emax: read-out: Efficacy (%)
Sequence of RORγt (P51450 with tags, fused parts or gaps T352K): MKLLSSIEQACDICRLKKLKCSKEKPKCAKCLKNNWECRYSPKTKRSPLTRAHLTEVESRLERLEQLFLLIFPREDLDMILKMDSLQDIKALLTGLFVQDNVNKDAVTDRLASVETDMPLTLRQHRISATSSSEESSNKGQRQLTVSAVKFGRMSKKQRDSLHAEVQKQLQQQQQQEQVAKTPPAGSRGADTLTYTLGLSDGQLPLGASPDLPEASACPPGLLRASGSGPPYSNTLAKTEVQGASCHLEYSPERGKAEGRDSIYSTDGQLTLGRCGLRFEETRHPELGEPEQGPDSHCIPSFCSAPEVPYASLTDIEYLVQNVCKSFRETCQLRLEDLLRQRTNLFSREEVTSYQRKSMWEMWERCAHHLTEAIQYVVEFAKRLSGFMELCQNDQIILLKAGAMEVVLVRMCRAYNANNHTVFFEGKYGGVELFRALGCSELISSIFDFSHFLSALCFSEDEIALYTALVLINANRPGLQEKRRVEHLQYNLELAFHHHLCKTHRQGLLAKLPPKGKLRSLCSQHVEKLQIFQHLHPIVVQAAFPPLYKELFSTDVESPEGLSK
Text: Methods: The Drosophila S2 cell line was originally purchased from Invitrogen and was maintained in Schneider's medium supplemented with 10% heat-inactivated bovine fetal calf serum and antibiotics (Invitrogen). […] The resulting chimeric gene was subcloned into the copper inducible pMT/V5-His A vector (available from Invitrogen).
In order to generate stable cell lines, cells were co-transfected with pMT-G4DBD-RORγt, pMT-G4DBD-RORα, pMT-G4DBD-DHR3, or pMT-G4DBDVP16 and pHygro plasmids (Invitrogen) and screened for resistant colonies in the presence of hygromycin (0.3 mg/mL).
Methods: 600 G4DBD-RORγ/γt-luc reporter (#25) or G4DBD-VP16-luc reporter cells were distributed into each well of 1,536-well white bottom plates in 4 μl S2 cell culture volume containing hygromicin (300 μg/ml) and puromycin (2 μg/ml). […] After one-hour incubation, 1 μl of culture medium solution containing copper sulfate (to final 0.7 mM) and 10 μM RORγ/γt antagonists were added to each well. After 20-hour incubation at ambient temperature, 1.5 μl firefly luciferase detection mix was added and the luciferase activities were measured in 10 min. ViewLux luminometers were used for measuring luciferase signal.
Since their cognate DNA binding sites were not well characterized, the DNA binding domains (DBD) of RORγ/γt, RORα (mouse homolog for POPγ), and DHR3 (Drosophila orthologue for ROR family proteins) were replaced with the heterologous yeast GAL4 DBD. The transcriptionally active domain of general transcriptional activator VP16 was also fused with GAL4 DBD. The GAL4 fusion constructs were placed under the control of a copper inducible promoter, and stable S2 cell lines with genomic integration of these four reporter constructs were generated. The copper inducible promoter ensures tight regulation of GAL4-fusion protein expression and it allows small molecules to get into the cells prior to protein induction, thus increasing their effects on GAL4 reporters. The stable reporter cell lines also encode the firefly luciferase reporter, whose expression is regulated by five copies of the GAL4 binding site enhancer (UAS), along with the pol III-driven Renilla luciferase reporter.
A cell-based reporter assay was used to detect RORγt-mediated activity. This assay, called RORγt□ employed Drosophila Schneider cells that were stably transfected with two vectors: a gene expressing a fusion of the Gal4 DNA binding domain and RORγt transactivation domain under the control of the metallothionine promoter and a Photinus luciferase reporter regulated by the Gal4 binding site enhancer, UAS. […] Cells (600/well) were dispensed into white solid 1536-well plates (Greiner) using a solenoid-based dispenser. Following transfer of 23 nL compound or DMSO vehicle by a pin tool, the plates were incubated 1 hr at ambient temperature, and 1 uL/well copper sulfate (700 uM final concentration) was added. The plates were centrifuged 15 s at 1000 RPM and incubated 20 hr at ambient temperature. After addition of 1.5 uL Photinus luciferase detection reagent, the plates were incubated 10 min at ambient temperature and then read by a ViewLux (Perkin Elmer) to detect luminescence. […] Efficacy is expressed as % of the maximal response of control inhibitor (Digoxin), set at 100%.

[1] = IC50(μM), Drosophila S2 cells, Gal4-RORγt luciferase reporter, 20 hr
[2] = Drosophila S2 cells, Gal4-RORγt luciferase reporter, 20 hr
[3] = S2 cell RORg IC50 μM, S2 cell reporter assay, listed for comparison

Molecule	IC50 (RORγt; [1])	Emax (RORγt)	other results
COc1cc(O)c(C(CC(=O)N2CCC(C)CC2)c2ccc3c(c2)OCO3)c(OC)c1 (stereo not drawn) [Compound 1]	–	–	pIC50 (mouse Th17 polarization): < 4.70
COc1cc(O)c(C(CC(=O)N2CCCC(C)(C)C2)c2ccc3c(c2)OCO3)c(OC)c1 (stereo not drawn) [Compound 8]	–	–	pIC50 (mouse Th17 polarization): 5.00 to 6.00
COc1cc(O)c(C(CC(=O)N2CC(C)OC(C)C2)c2ccc3c(c2)OCO3)c(OC)c1 (stereo not drawn) [Compound 41]	–	–	pIC50 (mouse Th17 polarization): > 6.00
COc1cc(O)c(C(CC(=O)N2CC(C)CC(C)C2)c2cc(F)c(F)c(F)c2)c(OC)c1 (stereo not drawn) [Compound 109, 1-(3,5-Dimethylpiperidin-1-yl)-3-(2-hydroxy-4,6-dimethoxyphenyl)-3-(3,4,5-trifluorophenyl)propan-1-one]	1 to 10 µM	97.3%	–
COc1cc(O)c(C(CC(=O)N2CC(C)CC(C)C2)c2ccc(OCc3ccccc3)cc2)c(OC)c1 (stereo not drawn) [Compound 110]	–	–	pIC50 (RORγt; [2]): 5.00 to 6.00
CCc1ccc(O)c(C(CC(=O)N2CCCC(C)C2)c2ccc3c(c2)OCO3)c1 (stereo not drawn) [Compound 112]	11 to 50 µM	106%	–
Cc1ccc(C)c(C(CC(=O)N2CCCC(C)C2)c2ccc3c(c2)OCO3)c1O (stereo not drawn) [Compound 113]	11 to 50 µM	81.5%	–
CC1CCCN(C(=O)CC(c2ccc3c(c2)OCO3)c2cc(C(C)C)ccc2O)C1 (stereo not drawn) [Compound 114]	11 to 50 µM	87.3%	–
Cc1cc(C)c(O)c(C(CC(=O)N2CCCC(C)C2)c2ccc3c(c2)OCO3)c1 (stereo not drawn) [Compound 116]	11 to 50 µM	48.2%	–
CC1CCCN(C(=O)CC(c2ccc3c(c2)OCO3)c2c(O)ccc3ccccc23)C1 (stereo not drawn) [Compound 118]	1 to 10 µM	94.9%	IC50 (RORγt; [3]): 1 to 10 µM
CCOc1ccc(O)c(C(CC(=O)N2CCCC(C)C2)c2ccc3c(c2)OCO3)c1 (stereo not drawn) [Compound 119]	11 to 50 µM	94.3%	IC50 (RORγt; [3]): 11 to 20 µM
CC1CCCN(C(=O)CC(c2ccc3c(c2)OCO3)c2ccc(O)cc2O)C1 (stereo not drawn) [Compound 122]	> 50 µM	–	–
Cc1ccc(C(CC(=O)N2CCCC(C)C2)c2ccc3c(c2)OCO3)c(O)c1 (stereo not drawn) [Compound 125]	11 to 50 µM	51.6%	–
Cc1cccc(O)c1C(CC(=O)N1CCCC(C)C1)c1ccc2c(c1)OCO2 (stereo not drawn) [Compound 126]	11 to 50 µM	43.5%	–
CC1CCCN(C(=O)CC(c2ccc3c(c2)OCO3)c2c(O)cccc2Cl)C1 (stereo not drawn) [Compound 127]	11 to 50 µM	27.1%	–
COc1cc2ccccc2c(O)c1C(CC(=O)N1CCCC(C)C1)c1ccc2c(c1)OCO2 (stereo not drawn) [Compound 128]	11 to 50 µM	80%	–

Molecule	IC50 (RORγt; [1])	Emax (RORγt)	other results
COc1cc(O)c(C(CC(=O)N2CCCC(C)C2)c2ccc3c(c2)OCO3)c2ccccc12 (stereo not drawn) [Compound 129]	11 to 50 µM	76.9%	–
COc1ccc(C)c(O)c1C(CC(=O)N1CCCC(C)C1)c1ccc2c(c1)OCO2 (stereo not drawn) [Compound 130]	11 to 50 µM	77.5%	–
CC1CCCN(C(=O)CC(c2ccc3c(c2)OCO3)c2ccc(I)cc2O)C1 (stereo not drawn) [Compound 131]	11 to 50 µM	33.2%	–
CC1CCCN(C(=O)CC(c2ccc3c(c2)OCO3)c2ccc(F)cc2O)C1 (stereo not drawn) [Compound 132]	1 to 10 µM	30.4%	–
CC(=O)Nc1ccc(C(CC(=O)N2CC(C)CC(C)C2)c2ccc3c(c2)OCO3)c(O)c1 (stereo not drawn) [Compound 133]	1 to 10 µM	103%	–
COc1c(C(CC(=O)N2CC(C)CC(C)C2)c2ccc3c(c2)OCO3)c(O)cc2occc12 (stereo not drawn) [Compound 139]	< 1 µM	94.5%	–
COc1cccc(O)c1C(CC(=O)N1CC(C)CC(C)C1)c1ccc2c(c1)OCO2 (stereo not drawn) [Compound 140, 3-(Benzo[d][1,3]dioxol-5-yl)-1-(3,5-dimethylpiperidin-1-yl)-3-(2-hydroxy-6-methoxyphenyl)propan-1-one]	< 1 µM	96.5%	–
CC1CC(C)CN(C(=O)CC(c2ccc(-n3cncn3)cc2)c2ccc3c(c2)OCO3)C1 (stereo not drawn) [Compound 141, 3-(4-(1H-1,2,4-Triazol-1-yl)phenyl)-3-(benzo[d][1,3]dioxol-5-yl)-1-(3,5-dimethylpiperidin-1-yl)propan-1-one]	11 to 50 µM	106%	–
CC1CC(C)CN(C(=O)CC(c2ccc3c(c2)OCO3)c2cccc(F)c2O)C1 (stereo not drawn) [Compound 143]	11 to 50 µM	86.4%	–
CC1CC(C)CN(C(=O)CC(c2ccc3c(c2)OCO3)c2ccc(F)cc2O)C1 (stereo not drawn) [Compound 144]	11 to 50 µM	97.3%	–
CC1CC(C)CN(C(=O)CC(c2ccc3c(c2)OCO3)c2cc(F)ccc2O)C1 (stereo not drawn) [Compound 145]	1 to 10 µM	79.7%	–
CC1CC(C)CN(C(=O)CC(c2ccc3c(c2)OCO3)c2c(O)ccc3cccnc23)C1 (stereo not drawn) [Compound 146]	1 to 10 µM	94.1%	–
O=C(CC(c1ccc2c(c1)OCO2)c1c(O)ccc2ccccc12)N1CCCCC1 (stereo not drawn) [Compound 147]	11 to 50 µM	88.1%	–
COc1cc(OC)c(C(c2ccccc2)C(C)(C)C(=O)N2C3CCC2CC3)c(OC)c1 (stereo not drawn) [Compound 153]	1 to 10 µM	36.5%	–
N-(3-(3-(3,5-Dimethylpiperidin-1-yl)-1-(2-hydroxy-4,6-dimethoxyphenyl)-3-oxopropyl)phenyl)methanesulfonamide [Compound 82]	–	–	Efficacy (%) (RORγt; % of the maximal response of control inhibitor (Digoxin), set at 100%): −95.39%; pIC50 (RORγt; [2]): > 6.00

More lines, main results first:

IC50 (RORγt; [1])	Emax (RORγt)	Molecule	other results
< 1 µM	–	COc1cc(O)c(C(CC(=O)N2CC(C)CC(C)C2)c2ccc(C(C)=O)cc2)c(OC)c1 (stereo not drawn) [Compound 100, 3-(4-Acetylphenyl)-1-(3,5-dimethylpiperidin-1-yl)-3-(2-hydroxy-4,6-dimethoxyphenyl)propan-1-one]	–
1 to 10 µM	–	COc1cc(O)c(C(CC(=O)N2CC(C)CC(C)C2)c2cccc(C(=O)O)c2)c(OC)c1 (stereo not drawn) [Compound 101, 3-(3-(3,5-Dimethylpiperidin-1-yl)-1-(2-hydroxy-4,6-dimethoxyphenyl)-3-oxopropyl)benzoic acid]	–
1 to 10 µM	99.9%	COc1cc(O)c(C(CC(=O)N2CC(C)CC(C)C2)c2cccc(F)c2)c(OC)c1 (stereo not drawn) [Compound 102]	–
1 to 10 µM	95.8%	COc1cc(O)c(C(CC(=O)N2CC(C)CC(C)C2)c2ccccc2Cl)c(OC)c1 (stereo not drawn) [Compound 103]	–
1 to 10 µM	97.3%	COc1cc(O)c(C(CC(=O)N2CC(C)CC(C)C2)c2ccc3c(c2)OC(F)(F)O3)c(OC)c1 (stereo not drawn) [Compound 104]	–
< 1 µM	94.7%	COc1cc(O)c(C(CC(=O)N2CC(C)CC(C)C2)c2ccc(SC)cc2)c(OC)c1 (stereo not drawn) [Compound 105, 1-(3,5-Dimethylpiperidin-1-yl)-3-(2-hydroxy-4,6-dimethoxyphenyl)-3-(4-(methylthio)phenyl)propan-1-one]	–
1 to 10 µM	–	COc1cc(O)c(C(CC(=O)N2CC(C)CC(C)C2)c2ccc(C(N)=O)cc2)c(OC)c1 (stereo not drawn) [Compound 111]	–
1 to 10 µM	98%	C#CCOc1cc(OC)cc(OC)c1C(CC(=O)N1CCCC(C)C1)c1ccc2c(c1)OCO2 (stereo not drawn) [Compound 123]	–
1 to 10 µM	94.1%	COc1cc(OC)c(C(CC(=O)N2CCCC(C)C2)c2ccc3c(c2)OCO3)c(OCc2ccccc2)c1 (stereo not drawn) [Compound 124]	IC50 (RORγt; [3]): 1 to 10 µM
1 to 10 µM	93.8%	COc1cc(OC)c(C(c2ccccc2)C(C)(C)C(=O)N2CC(C)CC(C)C2)c(OC)c1 (stereo not drawn) [Compound 149, 1-(3,5-Dimethylpiperidin-1-yl)-2,2-dimethyl-3-phenyl-3-(2,4,6-trimethoxyphenyl)propan-1-one]	IC50 (RORγt; [3]): 1 to 10 µM
1 to 10 µM	91.6%	COc1cc(OC)c(C(c2ccccc2)C(C)(C)C(=O)N2CC(C)OC(C)C2)c(OC)c1 (stereo not drawn) [Compound 150]	–
> 50 µM	118%	COc1cc(OC)c(C(c2ccccc2)C(C)(C)C(=O)N2CC3CC4CC(C3)CC2C4)c(OC)c1 (stereo not drawn) [Compound 151]	–
11 to 50 µM	50.7%	COc1cc(OC)c(C(c2ccccc2)C(C)(C)C(=O)N2CC3CCC2C3)c(OC)c1 (stereo not drawn) [Compound 152]	–
> 50 µM	–	COc1cc(OC)c(C(c2ccccc2)C(C)(C)C(=O)NC2CC(C)(C)CC(C)(C)C2)c(OC)c1 (stereo not drawn) [Compound 154]	–
> 50 µM	–	CCCN(C(=O)C(C)(C)C(c1ccccc1)c1c(OC)cc(OC)cc1OC)C1CCCC(C)C1 (stereo not drawn) [Compound 155]	–
11 to 50 µM	99.9%	COc1ccc2ccccc2c1C(c1ccc(F)cc1)C(C)(C)C(=O)N1CC(C)OC(C)C1 (stereo not drawn) [Compound 156]	–
1 to 10 µM	94.4%	COc1ccc2ccccc2c1C(c1ccc(F)cc1)C(C)(C)C(=O)N1CC(C)CC(C)C1 (stereo not drawn) [Compound 157]	–
